# Structures can show the parent of a compound that is named as a salt.
# Experiment: Stability comparison under severe conditions (0.3% hydrogen peroxide, 80° C., content by HPLC)
# Assay type: physicochemical
# Conditions: for Drug content, 24 hrs / Drug content, 48 hrs / Drug content, 120 hrs / Drug content, Initial / Drug content, 72 hrs / Drug content, 144 hrs: 1 mg/mL in 0.3% hydrogen peroxide, chamber at 80° C.
# Description: Each of the drugs shown in Table 5 was completely dissolved in a 0.3% hydrogen peroxide solution at a concentration of 1 mg/mL. While storage under stressed conditions at 80° C., changes in the contents of the drugs were monitored. The 0.3% hydrogen peroxide solution is a solution commonly used to quickly determine the stability of drugs and provides stressed conditions for artificial acceleration of the oxidation of the drugs. The content analysis was conducted by HPLC in accordance with the paroxetine content analysis defined in USP.
molecule,measurement,setting,value
"Fc1ccc([C@@H]2CCNC[C@H]2COc2ccc3c(c2)OCO3)cc1 [Paroxetine HCl, paroxetine hydrochloride]","Drug content, 24 hrs",,84.5%
same,"Drug content, 48 hrs",hydrochloride,53.8%
same,"Drug content, 120 hrs",hydrochloride,13.4%
same,"Drug content, Initial",,100.0%
Fc1ccc([C@@H]2CCNC[C@H]2COc2ccc3c(c2)OCO3)cc1.O=C(O)[C@H]1OC(O)[C@H](O)[C@@H](O)[C@@H]1O [Paroxetine glucuronate],"Drug content, 24 hrs",,92.8%
same,"Drug content, 48 hrs",,59.0%
same,"Drug content, 120 hrs",,12.3%
same,"Drug content, Initial",,100.0%
"C[C@H](CCC(=O)NCC(=O)O)[C@H]1CC[C@H]2[C@@H]3[C@H](O)C[C@@H]4C[C@H](O)CC[C@]4(C)[C@H]3C[C@H](O)[C@]12C.Fc1ccc([C@@H]2CCNC[C@H]2COc2ccc3c(c2)OCO3)cc1 [Paroxetine glycocholate, paroxetine glycocholate]","Drug content, 24 hrs",,96.8%
same,"Drug content, 48 hrs",,89.6%
same,"Drug content, 120 hrs",,54.3%
same,"Drug content, Initial",,100.0%
same,Stability compared to other paroxetine salts (in words),"0.3% hydrogen peroxide, 80° C., HPLC",highly stable
Fc1ccc([C@@H]2CCNC[C@H]2COc2ccc3c(c2)OCO3)cc1.O=S(=O)(O)c1ccc2ccccc2c1 [Paroxetine napsylate],"Drug content, 24 hrs",,60.4%
same,"Drug content, 72 hrs",,16.1%
same,"Drug content, 144 hrs",,3.5%
same,"Drug content, Initial",,100.0%
Fc1ccc([C@@H]2CCNC[C@H]2COc2ccc3c(c2)OCO3)cc1.Fc1ccc([C@@H]2CCNC[C@H]2COc2ccc3c(c2)OCO3)cc1.O.O=C(O)C(O)C(O)C(=O)O.O=C(O)C(O)C(O)C(=O)O [Paroxetine tartarate],"Drug content, 24 hrs",,81.3%
same,"Drug content, 72 hrs",,28.3%
same,"Drug content, 144 hrs",,4.8%
same,"Drug content, Initial",,100.0%
paroxetine methanesulfonate,"Drug content, 24 hrs",,74.4%
same,"Drug content, 48 hrs",,31.8%
same,"Drug content, 72 hrs",,16.6%
same,"Drug content, Initial",,100.0%
